Experimental data from ChEMBL document CHEMBL3351459, “Present status of quinoxaline motifs: excellent pathfinders in therapeutic medicine” (Eur J Med Chem, 2014).
≈ marks a conversion by molar mass, not a printed value.

Key:
[1] = system: Mycobacterium tuberculosis; test: Antimycobacterial activity against Mycobacterium tuberculosis H37Rv; type: functional
Candida = test: Antifungal activity against Candida assessed as growth inhibition; type: functional
[2] = Cytotoxicity against human MT4 cells assessed as reduction cell viability after 5 days by MTT assay; type: cell-based
[3] = system: Human immunodeficiency virus 1; test: Antiviral activity against HIV1 3B infected in human MT4 cells assessed as inhibition of virus-induced cytopathic effect after 5 days by MTT assay; type: functional, organism-based; settings: Human immunodeficiency virus 1, 3B, MT4, 120 h
[4] = Cytotoxicity against human SKOV3 cells; type: functional, cell-based; settings: SK-OV-3
T47D = test: Cytotoxicity against human T47D cells; type: functional, cell-based
MDA-MB-468 = test: Cytotoxicity against human MDA-MB-468 cells; type: functional, cell-based
[5] = Cytotoxicity against human HCT15 cells; type: functional, cell-based; settings: HCT-15
Trichomonas vaginalis = test: […] activity against Trichomonas vaginalis assessed as growth inhibition after 24 hrs; type: functional
Plasmodium falciparum = test: Antimalarial activity against Plasmodium falciparum; type: functional, organism-based
Leishmania infantum [6] = test: Antileishmanial activity against Leishmania infantum; type: functional, organism-based
Leishmania amazonensis = test: Antileishmanial activity against Leishmania amazonensis; type: functional, organism-based
Leishmania infantum [7] = test: Leishmanicidal activity against Leishmania infantum; type: functional, organism-based
[8] = system: Human immunodeficiency virus 1; test: Antiviral activity against Human immunodeficiency virus 1; type: functional, organism-based
Rattus norvegicus = test: Anti-inflammatory activity in Wistar rat at 100 mg/kg assessed as protection against edema formation dosed 1 hr before carrageenan challenge measured at end of 3rd hr by plethysmography; type: functional
SRSF protein kinase 1 = SRSF protein kinase 1 (Homo sapiens, UniProt Q96SB4); test: Inhibition of SRPK1 kinase (unknown origin)
SRSF protein kinase 1, sequence (Q96SB4 whole entry): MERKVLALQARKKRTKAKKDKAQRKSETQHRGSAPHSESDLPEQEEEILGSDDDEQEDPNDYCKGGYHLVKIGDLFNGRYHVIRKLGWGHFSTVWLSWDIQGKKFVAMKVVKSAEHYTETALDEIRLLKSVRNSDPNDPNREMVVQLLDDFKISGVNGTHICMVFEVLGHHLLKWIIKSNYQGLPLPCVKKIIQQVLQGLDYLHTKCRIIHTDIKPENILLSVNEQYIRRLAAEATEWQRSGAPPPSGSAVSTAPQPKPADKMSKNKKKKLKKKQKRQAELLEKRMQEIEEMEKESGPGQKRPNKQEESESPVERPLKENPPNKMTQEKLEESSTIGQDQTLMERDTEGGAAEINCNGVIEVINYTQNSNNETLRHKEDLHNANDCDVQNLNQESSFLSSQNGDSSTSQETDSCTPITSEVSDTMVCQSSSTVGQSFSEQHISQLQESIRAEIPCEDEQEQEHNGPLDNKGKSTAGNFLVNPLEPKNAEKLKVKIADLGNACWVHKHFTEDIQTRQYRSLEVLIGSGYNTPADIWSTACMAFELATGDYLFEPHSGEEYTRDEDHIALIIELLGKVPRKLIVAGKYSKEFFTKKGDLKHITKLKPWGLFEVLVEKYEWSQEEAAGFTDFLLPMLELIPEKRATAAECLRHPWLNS

[9] = Drug elimination in pig at 50 ppm; type: ADME, organism-based, Sus scrofa; settings: in vivo, read-out: Drug excretion
[10] = Primary phase half life in im dosed goat; type: ADME, organism-based, Capra hircus; settings: in vivo, read-out: alphat1/2 (converted)
[11] = Drug elimination in human patient kidney at starting dose of 9 mg/m2 administered as 5 or 20 mins intravenous infusion on days 1 to 5 every 21 days; type: ADME; settings: urine, read-out: Drug excretion
[12] = Elimination half life in iv dosed rat; type: ADME, organism-based; settings: in vivo, read-out: beta t1/2 (converted)
[13] = Elimination half life in iv dosed dog; type: ADME, organism-based, Canis lupus familiaris; settings: in vivo, read-out: beta t1/2 (converted)

Structure (SMILES): Cc1c(C(=O)Nc2ccccc2)[n+]([O-])c2cc(Cl)c(Cl)cc2[n+]1[O-]
- IC90 [1]: < 6.25 µg/mL

Structure (SMILES): O=c1[nH]c2cc3cccnc3c(Cl)c2nc1CBr
- MIC (Candida): 31.2 µg/mL (≈ 96.3 µM)

Structure (SMILES): N#Cc1c(Nc2ccc(F)cc2)[n+]([O-])c2ccc(Cl)cc2[n+]1[O-]
- IC90 [1]: < 6.25 µg/mL

Structure (SMILES): c1ccc(-c2nc3ccccc3nc2-c2ccccc2)cc1
- CC50 at 120 h [2]: 15.3 µg/mL (≈ 54.1 µM)
- IC50 [3]: 3.84 µg/mL (≈ 13.6 µM)

Structure (SMILES): CCCCCNCc1ccc2c(c1)C(=O)c1nccnc1C2=O
- IC50 [4]: 400 nM
- IC50 (T47D): 80 nM
- IC50 (MDA-MB-468): 200 nM
- IC50 [5]: 50 nM

Structure (SMILES): Cc1c(NCc2ccc(Cl)c(Cl)c2)[n+]([O-])c2cc(F)c(F)cc2[n+]1[O-]
- MIC (Trichomonas vaginalis): 6.25 µg/mL (≈ 16.2 µM)

Structure (SMILES): [O-][n+]1c(Cl)c(OC2CCCCC2)nc2ccc(F)cc21
- IC50 (Plasmodium falciparum): 4100 nM

Structure (SMILES): CCCNC(=O)c1c(C)[n+]([O-])c2ccc(Cl)cc2[n+]1[O-]
- IC90 [1]: < 0.19 µg/mL

Structure (SMILES): N#Cc1c(NC(=O)C2CCCCC2)[n+]([O-])c2ccc(Cl)cc2[n+]1[O-]
- IC50 (Leishmania infantum [6]): 2500 nM

Structure (SMILES): N#Cc1c(NC(=O)CCCCl)[n+]([O-])c2ccc(Cl)cc2[n+]1[O-]
- IC50 (Leishmania amazonensis): 700 nM

Structure (SMILES): N#Cc1c(NC(=O)N2CCN(c3ccc(C(F)(F)F)cc3)CC2)[n+]([O-])c2ccc(Cl)cc2[n+]1[O-]
- IC50 (Leishmania infantum [7]): 5700 nM

Structure (SMILES): C=CCCCOc1cnc2cc(C)c(C)cc2n1
- EC50 [8]: 0.22 µg/mL (≈ 0.908 µM)

Structure (SMILES): Cc1cc2ncc(=O)n(CC(O)CO)c2cc1C (centres undefined)
- EC50 [8]: 0.15 µg/mL (≈ 0.604 µM)

Structure (SMILES): Cc1nc2ccccc2nc1OCC(=O)N/N=C/c1ccc(Cl)cc1
- inhibition in vivo at 100 mg/kg (Rattus norvegicus): 65.9%

Structure (SMILES): O=C(O)c1ccc2cc3nc(-c4cccs4)c(-c4cccs4)nc3cc2c1
- IC50 (SRSF protein kinase 1): 40 nM

Structure (SMILES): COC(=O)N/N=C/c1c[n+]([O-])c2ccccc2[n+]1[O-] [CARBADOX]
- dose excreted [9]: 90%

Structure (SMILES): CC(=O)c1c(C)[n+]([O-])c2ccccc2[n+]1[O-] [MEQUINDOX]
- half-life [10]: 0.28 h

Structure (SMILES): C[C@@H](Oc1ccc(Oc2cnc3ccc(Cl)cc3n2)cc1)C(=O)O [R(+)XK469]
- dose excreted [11]: 7%
- half-life [12]: 13.5 h
- half-life [13]: 13.2 h
